Paper PMC12265377, “CC48 a new CB2R agonist/FAAH inhibitor dual drug blocks gastric cancer progression and overcomes paclitaxel resistance” (Journal of Experimental & Clinical Cancer Research : CR, 2025)
Values joined by “and” are separate entries in the source; they are usually repeats but may differ in a detail not shown here. Identical values can stand only once.

Assays:
[1] = system: HGC27-S/R and AGS cell lines; assay: VEGFA in cell culture medium (ELISA), all lines; type: cell-based, human; details: all the cell lines investigated, 48 h
Experimental: (§1) The amount of VEGFA secreted in the culture medium by HGC27-S/R and AGS treated cells was measured using a highly sensitive Enzyme-Linked Immunosorbent Assay (ELISA), Quantikine Kit ELISA (R&D Systems, Minneapolis, MN, USA), according to the manufacturer’s instructions. The measured values were normalized to the number of cells.

[2] = system: HGC27-S cells; assay: Migration (scratch) assay; type: cell-based, human; details: scratch assay 24 h, 6 µM AM630, 10 µM others
Experimental: (§2) HGC27-S/R and AGS cells were grown until confluence. A scratch wound was generated with a pipette tip. […] Photographs were taken of each well immediately (T0) and at various times, T1 (9 h), T2 (24 h), and T3 (48 h), using a Leica DMRXA camera (Leica Microsystems, Milan, Italy). The images were analyzed using ImageJ Software (http://rsb.info.nih.gov/ij/). The distance that cells migrated through the scratch area was determined by measuring the wound width at T1, T2 and T3 and subtracting it from the wound width at the start (T0). The relative migration rate was calculated by setting the percentage of migration of the control cells at time T2 equal to 1 and comparing the percentage of migration of the cells after each drug treatment to this value. The results are representative of three independent experiments.

[3] = system: AGS cells; assay: Migration (scratch) assay; type: cell-based, human; details: scratch assay 24 h, 6 µM AM630, 10 µM others
Experimental: as §2

[4] = system: HGC27-R cells; assay: Migration (scratch) assay; type: cell-based, human; details: scratch assay 24 h, highest concentration
Experimental: as §2

[5] = system: circulating cytokines (eotaxin, G-CSF, p40IL-12); assay: Serum cytokine quantification (Bio-Plex); type: in vivo, CD1-nude female mice
Experimental: Serum levels of 23 cytokines [G-CSF, GM-CSF, GRO/KC (CXCL1), IFN-γ, IL-1α, IL-1β, IL-2, IL-3, IL-4, IL-5, IL-6, IL-9, IL-10, IL-12 (p70), IL-13, IL-17 A, IL-18, MCP-1 (CCL2), MIP-1α, MIP-1β, RANTES, TNF-α, and eotaxin] were measured using Bio-Plex Pro Rat Cytokine 23-Plex™ (#M60009RDPD) magnetic bead-based assays (Bio-Rad Laboratories) on the Bio-Plex® platform (Bio-Rad), according to the manufacturer’s instructions. […] Cytokine expression (pg/mL) for each sample was multiplied by the dilution factor prior to the percent baseline calculation.

[6] = system: CB2R; assay: CB2R affinity (literature values); type: binding; details: CB2R vs CB1R
[7] = system: HGC27-S cells; assay: VEGFA in cell culture medium (ELISA); type: cell-based, human; details: 10 µM, 48 h, untreated 3.82
Experimental: as §1

[8] = system: NCI-N87_LUC cell line; assay: Mouse model by intraperitoneal NCI-N87_LUC inoculation, tumor growth by IVIS; type: in vivo, CD1-nude female mice; details: for BLI measurement, individual animals: listed as FI-5; for tumor volume vs control group (vehicle): day 41
Experimental: EighteenCD1-nude female mice(Charles River Laboratories International, Inc.) were intraperitoneally injected with the NCI-N87 cell line, stable transfected with the luciferase gene (NCl-N87_LUC) at a concentration of 2 × 10^6/100µL cells. Experimental groups and treatments are described in the table below (Table 1). Two concentrations of the CC48 molecule, 10 and 20 mg/Kg, were tested in two experimental groups. A third group was treated with the vehicle, consisting of20% DMSO, 10% Cyclodextrin and distilled water. […] The staff involved in the study recorded all the observations on recording forms. The data concerning animals’ body weight, clinical signs, feed intake and TP intake were recorded on the experimental register. All the corrections on data collection forms were made according to the Test Facility SOPs. All derived values, of registered tumor volumes, which are reported in the Tables S2 and S3 and relative graphs, such as mean and standard deviation, represent the rounded-up results of calculation performed with Microsoft Excel. Dunnett’s multiple comparison statistical test was applied.

[9] = system: CB1R; design: method as in PMID 36657299; details: cited from earlier work
[10] = Body weight, serum biochemistry and urinalysis in treated mice; details: GP2 and GP3 (10 and 20 mg/kg)
Experimental: All the animals were fed ad libitum with complete mouse feed, and water was provided ad libitum. The body weight for each animal was recorded weekly, starting from day 0 until the end of the study.
Physical observations of health status, including visual checks on the mice general appearance (e.g. fur and activity levels/responsiveness), were made daily. On day 45, the animals were individually housed in metabolic cages for 24 h, with free access to water and food, in order to perform urine collection and urinalysis. Immediately before metabolic cage housing, animals were subjected to a water load (10 mL/kg by oral gavage) in order to allow urine volume normalization. In addition, blood samples were taken from the submandibular vein after isoflurane anesthesia and before sacrifice at the end of the study period. The blood was collected in Eppendorf tubes and then centrifuged at about 8,000 rpm for 15 min at 4 °C for serum collection.

[11] = system: NCI-N87_LUC cell line; assay: Ki67 immunohistochemistry of tumor explants; type: in vivo, CD1-nude female mice; details: GP2/GP3 (10 and 20 mg/kg); vehicle 35%
Experimental: Tissue blocks fixed in formalin and embedded in paraffin were obtained from the explants of the tumor masses of each specimen. Sections stained with hematoxylin and eosin (H&E) were reviewed by a pathologist to confirm the adequacy of the sample, and to evaluate the morphologic and/or pathological characteristics of each sample. […] IHC analysis was carried out in sections after deparaffinization for 30 min and then rehydration in grades of alcohol. Antigen retrieval was performed at 90 °C for 20 min with Tris-borate-EDTA Buffer. To assess the Ki67, IHC was again carried out on all cases on paraffin-embedded sections using an anti-Ki67 Ab diluted 1:100 (Mib-1; DAKO) following the manufacturer’s instructions.

SMILES: COc1ccc(C(=O)c2c(C)n(CCN3CCOCC3)c3cc(I)ccc23)cc1 [AM630, reference compound]
- VEGFA secretion in culture medium (in words) [1]: increase in VEGFA secretion
- relative migration rate (untreated cells = 1) [2]: 0.6
- relative migration rate (untreated cells = 1) [3]: 0.7
- relative migration rate (control cells = 1) [4]: 0.2

SMILES: O=C(NC12CC3CC(CC(C3)C1)C2)c1ccccc1OCc1ccccc1 [CC48]
- serum G-CSF level vs GP1 ([5]; GP2, 10 mg/kg, p < 0.01): significant decrease
- serum eotaxin level vs GP1 ([5]; GP3, 20 mg/kg): tended to decrease
- serum G-CSF level vs GP1 ([5]; GP3, 20 mg/kg, p < 0.05): maintained at the highest dose
- serum p40IL-12 level vs GP1 ([5]; GP3, 20 mg/kg, p < 0.05): significant decrease
- fold higher affinity for CB2R compared to CB1R [6]: 16 fold
- VEGFA secretion in culture medium [7]: 2.6 pg/mL/cell
- BLI measurement, group MEAN ([8]; GP2 10mg/kg, DAY 5, n 5 (outlier ID 7 excluded)): 1,45E+05
- BLI measurement, individual animals ([8]; GP2 10mg/kg, DAY 5): 1,32E+06 and 5,58E+05 and 1,13E+05 and 4,14E+04 and 9,93E+03 and 3,23E+03
- BLI measurement, group MEAN ([8]; GP2 10mg/kg, DAY 7, n 5): 1,29E+05
- BLI measurement, individual animals ([8]; GP2 10mg/kg, DAY 7): 1,55E+06 and 5,41E+05 and 7,10E+04 and 2,79E+04 and 3,30E+03 and 2,39E+03
- BLI measurement, group MEAN ([8]; GP2 10mg/kg, DAY 10, n 5): 1,07E+05
- BLI measurement, individual animals ([8]; GP2 10mg/kg, DAY 10): 1,30E+06 and 4,73E+05 and 4,20E+04 and 1,70E+04 and 2,56E+03 and 2,69E+03
- BLI measurement, group MEAN ([8]; GP2 10mg/kg, DAY 14, n 5): 1,83E+05
- BLI measurement, individual animals ([8]; GP2 10mg/kg, DAY 14): 7,07E+05 and 8,53E+05 and 3,80E+04 and 1,58E+04 and 2,68E+03 and 3,22E+03
- BLI measurement, group MEAN ([8]; GP2 10mg/kg, DAY 17, n 5): 2,73E+05
- BLI measurement, individual animals ([8]; GP2 10mg/kg, DAY 17): 8,99E+05 and 1,29E+06 and 6,23E+04 and 1,12E+04 and 1,95E+03 and 1,85E+03
- BLI measurement, group MEAN ([8]; GP2 10mg/kg, DAY 24, n 5): 3,18E+05
- BLI measurement, individual animals ([8]; GP2 10mg/kg, DAY 24): 1,09E+06 and 1,51E+06 and 6,35E+04 and 1,11E+04 and 2,24E+03 and 2,96E+03
- BLI measurement, group MEAN ([8]; GP2 10mg/kg, DAY 31, n 5): 3,12E+05
- BLI measurement, individual animals ([8]; GP2 10mg/kg, DAY 31): 1,51E+06 and 1,43E+06 and 1,11E+05 and 1,60E+04 and 3,40E+03 and 3,65E+03
- BLI measurement, group MEAN ([8]; GP2 10mg/kg, DAY 35, n 5): 2,44E+05
- BLI measurement, individual animals ([8]; GP2 10mg/kg, DAY 35): 2,93E+06 and 1,06E+06 and 1,41E+05 and 1,56E+04 and 3,01E+03 and 3,50E+03
- BLI measurement, group MEAN ([8]; GP2 10mg/kg, DAY 38, n 5): 4,60E+04
- BLI measurement, individual animals ([8]; GP2 10mg/kg, DAY 38): 4,74E+06 and 1,04E+05 and 1,11E+05 and 9,13E+03 and 2,90E+03 and 2,69E+03
- BLI measurement, group MEAN ([8]; GP2 10mg/kg, DAY 41, n 5): 2,12E+05
- BLI measurement, individual animals ([8]; GP2 10mg/kg, DAY 41): 3,93E+06 and 8,93E+05 and 1,54E+05 and 9,95E+03 and 3,19E+03 and 2,28E+03
- tumor volume vs control group (vehicle) ([8]; GP2, 10 mg/kg IP every other day, p < 0.01): substantial and significant decrease in tumor volume
- BLI measurement, group MEAN ([8]; GP3 20mg/kg, DAY 5, n 5 (outlier ID 13 excluded)): 2,03E+05
- BLI measurement, individual animals ([8]; GP3 20mg/kg, DAY 5): 1,03E+06 and 8,12E+05 and 1,11E+05 and 7,63E+04
- BLI measurement, group MEAN ([8]; GP3 20mg/kg, DAY 7, n 5): 1,10E+05
- BLI measurement, individual animals ([8]; GP3 20mg/kg, DAY 7): 7,47E+05 and 4,61E+05 and 2,67E+04 and 5,08E+04
- BLI measurement, group MEAN ([8]; GP3 20mg/kg, DAY 10, n 5): 8,98E+04
- BLI measurement, individual animals ([8]; GP3 20mg/kg, DAY 10): 3,56E+05 and 3,68E+05 and 3,53E+04 and 3,80E+04
- BLI measurement, group MEAN ([8]; GP3 20mg/kg, DAY 14, n 5): 1,18E+05
- BLI measurement, individual animals ([8]; GP3 20mg/kg, DAY 14): 1,23E+06 and 5,29E+05 and 3,27E+04 and 1,72E+04
- BLI measurement, group MEAN ([8]; GP3 20mg/kg, DAY 17, n 5): 1,51E+05
- BLI measurement, individual animals ([8]; GP3 20mg/kg, DAY 17): 1,63E+06 and 7,10E+05 and 2,61E+04 and 1,16E+04
- BLI measurement, group MEAN ([8]; GP3 20mg/kg, DAY 24, n 5): 2,46E+05
- BLI measurement, individual animals ([8]; GP3 20mg/kg, DAY 24): 1,67E+06 and 1,15E+06 and 3,46E+04 and 3,03E+04
- BLI measurement, group MEAN ([8]; GP3 20mg/kg, DAY 31, n 5): 2,64E+05
- BLI measurement, individual animals ([8]; GP3 20mg/kg, DAY 31): 1,22E+06 and 1,26E+06 and 2,79E+04 and 1,85E+04
- BLI measurement, group MEAN ([8]; GP3 20mg/kg, DAY 35, n 5): 3,58E+05
- BLI measurement, individual animals ([8]; GP3 20mg/kg, DAY 35): 2,08E+06 and 1,71E+06 and 4,56E+04 and 2,63E+04
- BLI measurement, group MEAN ([8]; GP3 20mg/kg, DAY 38, n 5): 2,00E+05
- BLI measurement, individual animals ([8]; GP3 20mg/kg, DAY 38): 2,42E+06 and 9,14E+05 and 3,50E+04 and 4,29E+04
- BLI measurement, group MEAN ([8]; GP3 20mg/kg, DAY 41, n 5): 2,00E+04
- BLI measurement, individual animals ([8]; GP3 20mg/kg, DAY 41): 1,34E+06 and 3,58E+04 and 3,11E+04 and 2,06E+04
- tumor volume vs control group (vehicle) ([8]; GP3, 20 mg/kg IP every other day, p < 0.001): statistically significant difference in the size of the tumor mass
- EC50 [9]: 489 nM
- relative migration rate (untreated cells = 1) [2]: 0.6
- relative migration rate (untreated cells = 1) [3]: 0.8
- relative migration rate (control cells = 1) [4]: 0.76
- body weight vs vehicle [10]: No statistically significant differences were observed
- serum AST, ALT, Cre, UREA and GFR vs vehicle [10]: No statistically significant differences in biochemical results
- percentage of Ki67-stained nuclei in tumor [11]: 15–20%
